The text below walks through data of patent US4305950A, “Pharmaceutical agent containing amino derivatives of 2-methyl-5-(2-hydroxystyryl)-1,3,4-thiadiazole” (BASF Aktiengesellschaft, priority 1978, dated 1981).

The subject of one data set is female NMRI mice. The format is in vivo. The following applies: for Therapeutic range, relative: mouse, in vivo.
For a further data set, the target named is T1, cardiac beta-1-receptors (Felis catus, UniProt Q9TST6).
T1 construct: in narcotized cats (weight 2-4 kg); from tissue; host or cells: heart of the living narcotized cat (in vivo)
T1 sequence (Q9TST6 whole entry): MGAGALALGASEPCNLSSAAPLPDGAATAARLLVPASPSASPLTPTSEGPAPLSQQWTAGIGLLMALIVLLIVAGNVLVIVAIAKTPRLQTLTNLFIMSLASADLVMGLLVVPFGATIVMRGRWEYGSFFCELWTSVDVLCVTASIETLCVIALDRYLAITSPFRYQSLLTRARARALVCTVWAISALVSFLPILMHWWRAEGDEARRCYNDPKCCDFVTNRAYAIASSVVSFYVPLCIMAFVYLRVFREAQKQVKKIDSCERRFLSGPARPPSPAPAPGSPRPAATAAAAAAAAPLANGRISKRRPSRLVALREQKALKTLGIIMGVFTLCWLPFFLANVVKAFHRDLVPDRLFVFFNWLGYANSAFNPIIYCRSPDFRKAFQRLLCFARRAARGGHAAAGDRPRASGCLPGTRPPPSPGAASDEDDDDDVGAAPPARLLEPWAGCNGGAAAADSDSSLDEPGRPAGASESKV
Kind of data set: Beta-sympatholytic action: inhibition of isoproterenol-induced tachycardia in narcotized cats. The format is in vivo. The following applies: for Beta-sympatholytic action, R.A. (relative activity): Propranolol = 1.00, cats, intravenous; for factor by which doses blocking cardiac beta-1-receptors are lower than those of propranolol: compared to propranolol. From the text:
The following test methods were used:
Beta-sympatholytic agents inhibit such tachycardia.
^(1) Inhibition of isoproterenolinduced tachycardia in cats under
hexobarbital narcosis. Intravenous administration.
^(2) Dose (mg/kg) which inhibits the isoproterenolinduced tachycardia

Take `Cc1nnc(C=Cc2ccccc2OCC(O)CNC(C)C)s1` (stereo not shown) [Example 1, 2-Methyl-5-[2-(2-hydroxy-3-isopropylamino-propoxy)-styryl]-1,3,4-thiadiazol]: the “Therapeutic range, relative” value with female NMRI mice is 10.84. Moreover, the “Beta-sympatholytic action, R.A. (relative activity)” value at cardiac beta-1-receptors was 14.10.
For `Cc1nnc(C=Cc2ccccc2OCC(O)CNC2CC2)s1` (stereo not shown) [Example 2, 2-Methyl-5-[2-(2-hydroxy-3-cyclopropylamino-propoxy)-styryl]-1,3,4-thiadiazole], in the data set with female NMRI mice, the “factor by which the therapeutic range is increased, compared to propranolol” value is 7.6 and the “Therapeutic range, relative” value was determined as 7.55. Also, on cardiac beta-1-receptors, the “Beta-sympatholytic action, R.A. (relative activity)” value is 11.75 and the “factor by which doses blocking cardiac beta-1-receptors are lower than those of propranolol” value is 12.
Turning to `Cc1nnc(C=Cc2ccccc2OCC(O)CNC(C)(C)C)s1` (stereo not shown) [Example 3, 2-Methyl-5-[2-(2-hydroxy-3-tert.-butylamino-propoxy)-styryl]-1,3,4-thiadiazole], the “Therapeutic range, relative” value in the data set on female NMRI mice was determined as 13.73. Moreover, on cardiac beta-1-receptors, the “Beta-sympatholytic action, R.A. (relative activity)” value amounted to 25.22 and the “factor by which doses blocking cardiac beta-1-receptors are lower than those of propranolol” value was 25. Moreover, the ED50 at cardiac beta-1-receptors (cat, cats under hexobarbital narcosis, intravenous administration, read-out: Beta-sympatholytic action, ED 50% (dose which inhibits the isoproterenol-induced tachycardia by 50%)) amounted to 5.59 µg/kg.
`C#CC(C)NCC(O)COc1ccccc1C=Cc1nnc(C)s1` (stereo not shown) [Example 7, 2-Methyl-5-[2-(2-hydroxy-3-(but-1-ynyl-3-amino)-propoxy)-styryl]-1,3,4-thiadiazole]: in the data set on female NMRI mice, the “factor by which the therapeutic range is increased, compared to propranolol” value was 30.7 and the “Therapeutic range, relative” value worked out at 30.68. At cardiac beta-1-receptors, the “Beta-sympatholytic action, R.A. (relative activity)” value was found to be 12.70.
